# Assay results reported in patent US6677277B1, “Substituted sulphonyl amino(thio)carbonyl compounds and their use as herbicides” (Bayer Aktiengesellschaft, priority 1996, dated 2004).
# Legend:
# Format in all cases: in vivo
# [1] = tested on: Alopecurus; assay: Pre-emergence test/greenhouse; settings: 125 g ai./ha, after three weeks
# In short: (§1)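 Percent damage compared with untreated development was assessed after three weeks. Active compound, formulated in acetone and alkylaryl polyglycol ether then diluted in water, was sprayed onto the soil surface about 24 hours after sowing.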
# [2] = tested on: Amaranthus; assay: Pre-emergence test/greenhouse; settings: 125 g ai./ha, after three weeks
# In short: as §1
# [3] = tested on: Chenopodium; assay: Pre-emergence test/greenhouse; settings: 125 g ai./ha, after three weeks
# In short: as §1
# [4] = tested on: Cotton; assay: Pre-emergence test/greenhouse; settings: 125 g ai./ha, after three weeks
# In short: as §1
# [5] = tested on: Maize; assay: Pre-emergence test/greenhouse; settings: 125 g ai./ha, after three weeks
# In short: as §1
# [6] = tested on: Matricaria; assay: Pre-emergence test/greenhouse; settings: 125 g ai./ha, after three weeks
# In short: as §1
# [7] = tested on: Sorghum; assay: Pre-emergence test/greenhouse; settings: 125 g ai./ha, after three weeks
# In short: as §1
# [8] = tested on: Viola; assay: Pre-emergence test/greenhouse; settings: 125 g ai./ha, after three weeks
# In short: as §1
# [9] = tested on: weeds; assay: Pre-emergence test; settings: cf. Tables A-1 to A-5
# In short: as §1
# [10] = tested on: Alopecurus; assay: Post-emergence test/greenhouse; settings: 60 g ai./ha, after three weeks
# In short: (§2)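 Three weeks after spraying 5–15 cm plants with water-diluted acetone/alkylaryl polyglycol ether formulations (1000 l/ha carrier, rate per unit area), damage is scored in % relative to untreated development.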
# [11] = tested on: Ipomoea; assay: Post-emergence test/greenhouse; settings: 60 g ai./ha, after three weeks
# In short: as §2
# [12] = tested on: Lolium; assay: Post-emergence test/greenhouse; settings: 60 g ai./ha, after three weeks
# In short: as §2
# [13] = tested on: Solanum; assay: Post-emergence test/greenhouse; settings: post-emergence, 60 g ai./ha, after three weeks
# In short: as §2
# [14] = tested on: Sorghum; assay: Post-emergence test/greenhouse; settings: post-emergence, 60 g ai./ha, after three weeks
# In short: as §2
# [15] = tested on: Stellaria; assay: Post-emergence test/greenhouse; settings: 60 g ai./ha, after three weeks
# In short: as §2
# [16] = tested on: Wheat; assay: Post-emergence test/greenhouse; settings: 60 g ai./ha, after three weeks
# In short: as §2
# [17] = tested on: weeds; assay: Post-emergence test; settings: cf. Tables B-1 to B-4
# In short: as §2
smiles,measurement,setting,value
COc1cccc(SC(C)C)c1S(=O)(=O)NC(=O)n1nc(OC)n(C)c1=O [Example 24],"% damage, Alopecurus",[1],95%
same,"% damage, Amaranthus",[2],100%
same,"% damage, Chenopodium",[3],100%
same,"% damage, Cotton",[4],0%
same,"% damage, Maize",[5],0%
same,"% damage, Matricaria",[6],70%
same,"% damage, Sorghum",[7],70%
same,"% damage, Viola",[8],100%
same,activity against weeds,[9],very strong activity
same,"% damage, Alopecurus",[10],90%
same,"% damage, Ipomoea",[11],90%
same,"% damage, Lolium",[12],60%
same,"% damage, Solanum",[13],95%
same,"% damage, Sorghum",[14],90%
same,"% damage, Stellaria",[15],95%
same,"% damage, Wheat",[16],15%
same,activity against weeds,[17],very strong activity
